Biological target: T1, human MR (Homo sapiens, UniProt P08235)
T1 construct: The full length human MR gene is cloned from a human kidney or human brain cDNA library; made in house; host or cells: Sf9 insect cells (baculovirus, pAcHLT transfer vector)
T1 sequence (P08235 1-984): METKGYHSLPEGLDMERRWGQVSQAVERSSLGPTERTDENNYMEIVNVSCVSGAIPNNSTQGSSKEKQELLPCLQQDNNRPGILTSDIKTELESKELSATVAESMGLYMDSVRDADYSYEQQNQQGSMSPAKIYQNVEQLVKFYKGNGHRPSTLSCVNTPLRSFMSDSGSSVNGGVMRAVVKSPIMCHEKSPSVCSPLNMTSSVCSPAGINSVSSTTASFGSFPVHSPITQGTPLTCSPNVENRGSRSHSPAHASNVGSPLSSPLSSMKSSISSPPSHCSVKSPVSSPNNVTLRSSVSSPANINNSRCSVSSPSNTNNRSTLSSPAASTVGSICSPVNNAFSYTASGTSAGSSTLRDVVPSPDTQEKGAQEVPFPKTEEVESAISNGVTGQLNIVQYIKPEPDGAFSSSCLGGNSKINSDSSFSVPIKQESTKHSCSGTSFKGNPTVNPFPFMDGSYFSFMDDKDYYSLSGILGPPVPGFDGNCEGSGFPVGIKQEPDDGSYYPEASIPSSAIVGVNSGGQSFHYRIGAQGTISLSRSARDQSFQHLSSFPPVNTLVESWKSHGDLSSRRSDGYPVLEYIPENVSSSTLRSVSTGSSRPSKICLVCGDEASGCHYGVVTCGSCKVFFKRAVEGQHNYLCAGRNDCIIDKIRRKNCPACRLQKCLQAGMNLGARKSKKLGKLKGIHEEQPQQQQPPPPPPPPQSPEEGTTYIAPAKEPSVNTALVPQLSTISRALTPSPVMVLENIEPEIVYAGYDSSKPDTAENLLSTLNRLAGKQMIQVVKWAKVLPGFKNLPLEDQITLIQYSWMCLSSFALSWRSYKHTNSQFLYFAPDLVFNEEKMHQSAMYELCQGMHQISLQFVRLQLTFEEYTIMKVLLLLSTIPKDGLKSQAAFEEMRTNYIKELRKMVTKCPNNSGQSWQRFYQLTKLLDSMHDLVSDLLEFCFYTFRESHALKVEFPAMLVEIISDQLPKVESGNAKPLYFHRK
Assay: Mineralocorticoid Receptor Binding Assay ([3H]-aldosterone displacement)
Conditions: full length human MR expressed in Sf9 cells, 0.5 nM [3H]-aldosterone
Outline: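 Full-length human MR expressed in Sf9 cells; lysate (20-25 μg protein) incubated with 0.5 nM [3H]-aldosterone and test compound in molybdate/Tris/phosphate/glycerol buffer pH 7.5, 16 h at 4 °C. Bound ligand measured by filtration and scintillation counting; IC50 converted to Ki via Cheng-Prusoff.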

Ki [nM]	SMILES
≤ 500	Cc1cc(C2(c3cc(C)c(O)c(C)c3)C(=O)N(Cc3cccc([N+](=O)[O-])c3)c3ccccc32)cc(C)c1O [Example 85, 3,3-Bis-(4-hydroxy-3,5-dimethyl-phenyl)-1-(3-nitro-benzyl)-1,3-dihydro-indol-2-one]
≤ 500	Cc1cc(C2(c3cc(C)c(O)c(C)c3)C(=O)N(Cc3noc(C4CCC4)n3)c3ccccc32)cc(C)c1O [Example 86, 1-(5-Cyclobutyl-[1,2,4]oxadiazol-3-ylmethyl)-3,3-bis-(4-hydroxy-3,5-dimethyl-phenyl)-1,3-dihydro-indol-2-one]
≤ 500	Cc1cc(C2(c3cc(C)c(O)c(C)c3)C(=O)N(Cc3noc(-c4ccco4)n3)c3ccccc32)cc(C)c1O [Example 87, 1-(5-Furan-2-yl-[1,2,4]oxadiazol-3-ylmethyl)-3,3-bis-(4-hydroxy-3,5-dimethyl-phenyl)-1,3-dihydro-indol-2-one]
≤ 500	CCc1nc(CN2C(=O)C(c3cc(C)c(O)c(C)c3)(c3cc(C)c(O)c(C)c3)c3ccccc32)cs1 [Example 90, 1-(2-Ethyl-thiazol-4-ylmethyl)-3,3-bis-(4-hydroxy-3,5-dimethyl-phenyl)-1,3-dihydro-indol-2-one]
≤ 500	Cc1cc(C2(c3cc(C)c(O)c(C)c3)C(=O)N(Cc3csc(-c4ccccc4)n3)c3ccccc32)cc(C)c1O [Example 91, 3,3-Bis-(4-hydroxy-3,5-dimethyl-phenyl)-1-(2-phenyl-thiazol-4-ylmethyl)-1,3-dihydro-indol-2-one]
≤ 500	Cc1ccc2c(c1)C(c1cc(C)c(O)c(C)c1)(c1cc(C)c(O)c(C)c1)C(=O)N2Cc1csc(-c2ccccc2)n1 [Example 92, 3,3-Bis-(4-hydroxy-3,5-dimethyl-phenyl)-5-methyl-1-(2-phenyl-thiazol-4-ylmethyl)-1,3-dihydro-indol-2-one]
≤ 500	COc1ccc(-c2nc(CN3C(=O)C(c4cc(C)c(O)c(C)c4)(c4cc(C)c(O)c(C)c4)c4ccccc43)cs2)cc1 [Example 94, 3,3-Bis-(4-hydroxy-3,5-dimethyl-phenyl)-1-[2-(4-methoxy-phenyl)-thiazol-4-ylmethyl]-1,3-dihydro-indol-2-one]
≤ 500	COc1ccc(-c2nc(CN3C(=O)C(c4cc(C)c(O)c(C)c4)(c4cc(C)c(O)c(C)c4)c4cc(C)ccc43)cs2)cc1 [Example 95, 3,3-Bis-(4-hydroxy-3,5-dimethyl-phenyl)-1-[2-(4-methoxy-phenyl)-thiazol-4-ylmethyl]-5-methyl-1,3-dihydro-indol-2-one]
≤ 500	Cc1cc(C2(c3cc(C)c(O)c(C)c3)C(=O)N(Cc3ccc4ccccc4n3)c3ccccc32)cc(C)c1O [Example 97, 3,3-Bis-(4-hydroxy-3,5-dimethyl-phenyl)-1-quinolin-2-ylmethyl-1,3-dihydro-indol-2-one]
≤ 500	COc1ccc(-c2nc(CN3C(=O)C(c4cc(C)c(O)c(C)c4)(c4cc(C)c(O)c(C)c4)c4ccccc43)no2)cc1 [Example 99, 3,3-Bis-(4-hydroxy-3,5-dimethyl-phenyl)-1-[5-(4-methoxy-phenyl)-[1,2,4]oxadiazol-3-ylmethyl]-1,3-dihydro-indol-2-one]
≤ 500	C#CCN1C(=O)C(c2cc(C)c(O)c(C)c2)(c2cc(C)c(O)c(C)c2)c2ccccc21 [Example 101, 3,3-Bis-(4-hydroxy-3,5-dimethyl-phenyl)-1-prop-2-ynyl-1,3-dihydro-indol-2-one]
≤ 500	CC(C)=CCN1C(=O)C(c2cc(C)c(O)c(C)c2)(c2cc(C)c(O)c(C)c2)c2ccccc21 [Example 102, 3,3-Bis-(4-hydroxy-3,5-dimethyl-phenyl)-1-(3-methyl-but-2-enyl)-1,3-dihydro-indol-2-one]
≤ 500	C=C(C)CN1C(=O)C(c2cc(C)c(O)c(C)c2)(c2cc(C)c(O)c(C)c2)c2ccccc21 [Example 106, 3,3-Bis-(4-hydroxy-3,5-dimethyl-phenyl)-1-(2-methyl-allyl)-1,3-dihydro-indol-2-one]

Reference: patent US7250442B2, “Dihydroindol-2-one derivatives as steroid hormone nuclear receptor modulators” (Eli Lilly and Company, priority 2003, dated 2007)
